How the values were obtained:
Format in all cases: biochemical
[1] = test system: fructosyl peptide oxidase; test: Substrate specificity, pH profile and stability of fructosyl peptide oxidase-immobilized column (Example 1); conditions: for Relative activity (%) pH 6.0: buffer pH 6.0; for Relative activity (%) pH 6.0 / Relative activity (%) pH 7.0 / Relative activity (%) pH 8.0: normalized to 100 for the response to fructosyl valine at each pH, 30° C.; for Relative activity (%) pH 7.0: buffer pH 7.0; for Relative activity (%) pH 8.0: buffer pH 8.0
Experimental: Firebrick powder (150 mg, 30 to 60 meshes) was thoroughly dried, immersed in a 10% solution of γ-aminopropyltriethoxysilane in anhydrous toluene for one hour, then thoroughly washed with anhydrous toluene and dried. The aminosilane-modified support was immersed in a 5% aqueous glutaraldehyde solution for one hour, and then thoroughly washed with distilled water, followed by substitution with 100 mM sodium phosphate buffer (pH 7.0). The buffer was removed as far as possible. A solution ([…]) of fructosyl peptide oxidase (140 units/mL, from Kikkoman Co.) in 100 mM sodium phosphate buffer (pH 7.0) was contacted with the formylated firebrick powder, and then incubated at 0 to 4° C. for one day for the enzyme immobilization. The support immobilized enzyme was packed into a column (internal diameter: 3.5 mm, length: 30 mm) to give the fructosyl peptide oxidase-immobilized column.
The buffer was pumped out from a buffer tank (1) using a pump (2), and 5 μL of a sample was injected using a valve (4). A protease-immobilized column (14), a flow type calorimeter (16), a second immobilized enzyme column (19) and a second electrode for hydrogen peroxide (20) were not placed, and a fructosyl peptide oxidase-immobilized column was placed as a first immobilized enzyme column (17), followed by an electrode for hydrogen peroxide (18) downstream thereof. The injected sample transferred with the flowing buffer, passed through a mixing coil (15) inside an incubator (13), and thus the sample temperature was adjusted and the sample was mixed with the buffer. The sample passed through the fructosyl peptide oxidase-immobilized column (17) and the electrode for hydrogen peroxide (18) to produce hydrogen peroxide from fructosyl valylhistidine in the sample, and then the change of the current was detected.
A composition of the buffer used in this assay apparatus contained 100 mM phosphoric acid, 50 mM potassium chloride and 1 mM sodium azide, and its pH was 7.0.
(§1) The flow rate of the buffer was 1.0 mL/minute, and the temperature in the incubator was 30° C.
Using the assay apparatus described in (3), a 5 μL portion of fructosyl glycine, fructosyl valine or fructosyl valylhistidine was injected, and the characteristics of the fructosyl peptide oxidase-immobilized column was examined.
When pH of the buffer was 6.0, 7.0 or 8.0, the assay results of the activity for the oxidation of fructosyl glycine (FG), fructosyl valine (FV) or fructosyl valylhistidine (FVH) were shown in FIG. 3. For fructosyl glycine the activity was high at pH 8.0, but the activity at pH 6.0 was decreased to about 50% of that at pH 8.0. For fructosyl valine and fructosyl valylhistidine, the activity was high at pH 6.0 and 7.0.
Response values in Table 1 were normalized to 100 for the response to fructosyl valine at each pH.

[2] = test system: fructosyl amino acid oxidase; test: Characteristics of fructosyl amino acid oxidase-immobilized column (Example 5); conditions: buffer pH 8.0, 37° C.
Experimental: FIG. 1 was the flow type assay apparatus with one flow path. The buffer A was pumped out from the buffer tank (1) using the pump (2), and a 5 μL portion of the sample was injected using the valve (4). The fructosyl amino acid oxidase-immobilized column was placed in the first immobilized enzyme column (17) and the electrode for hydrogen peroxide was placed downstream. The second immobilized enzyme column (19), the second electrode for hydrogen peroxide (20), the protease-immobilized column (14) and the flow type calorimeter (16) were not disposed. The injected sample transferred with the flowing buffer, passed through the mixing coil (15) in the incubator (13), and thus the sample temperature was adjusted and the sample was mixed with the buffer. The sample passed through the fructosyl amino acid oxidase-immobilized column (17) and the electrode for hydrogen peroxide (18), hydrogen peroxide was produced from fructosyl valine in the sample, and the change of the current was detected.
The composition of the buffer for this assay apparatus contained 100 mM phosphoric acid, 50 mM potassium chloride and 1 mM sodium azide, and its pH was 8.0.
The flow rate of the buffer was 1.0 mL/minute, and the temperature in the incubator was 37° C.
Using the assay apparatus 1 mentioned in (3), a 5 μL portion of fructosyl glycine was injected, and the characteristics of the fructosyl amino acid oxidase-immobilized column was examined.
When pH in the buffer was 7.0, 7.5, 8.0, 8.5 or 9.0, the activity in the oxidation of fructosyl glycine was measured.

[3] = test system: fructosyl peptide oxidase; test: Substrate specificity of fructosyl peptide oxidase-immobilized column (Example 4); conditions: buffer A pH 7.0; for Relative response value: normalized to 100 for the response to fructosyl valine, 30° C.
Experimental: In the same way as described in Example 1 (1), 150 mg of firebrick powder (30 to 60 meshes) was formylated. The solution (200 μL) of fructosyl peptide oxidase (140 units/mL, from Kikkoman Co.) in 100 mM sodium phosphate buffer (pH 7.0) was contacted with the formylated firebrick powder, and then incubated at 0 to 4° C. for one day for the enzyme immobilization.
In the assay apparatus shown in FIG. 1, the protease-immobilized column (14), the flow type calorimeter (16) and the first immobilized enzyme column (17) were not disposed, and the electrode for glucose was placed in the electrode for hydrogen peroxide (18), the fructosyl peptide oxidase-immobilized column in the second immobilized enzyme column (19), and the electrode for hydrogen peroxide in the electrode for hydrogen peroxide (20). The buffer A was pumped out from the buffer tank (1) by the pump (2), and a 5 μL portion of the sample was injected using the valve (4). The injected sample transferred with the flowing buffer A, passed through the mixing coil (15) in the incubator (13), and thus the sample temperature was adjusted and the sample was mixed with the buffer. And then the sample passed through the downstream electrode for glucose (18), fructosyl peptide oxidase-immobilized column (19) and an electrode for hydrogen peroxide (20), hydrogen peroxide was produced from fructosyl valylhistidine in the sample, and the change of the current was detected.
The composition of the buffer A for the assay apparatus contained 100 mM phosphoric acid, 50 mM potassium chloride and 1 mM sodium azide, and its pH was 7.0.
as §1
On fructosyl peptide oxidase-immobilized column, the substrate specificity for various fructosyl amino acids, fructosyl peptides, amino acids and sugars was examined using the assay apparatus mentioned in (4) when pH of the buffer A was 7.0. In the Table 4, the relative values were normalized to 100 for the response to fructosyl valine.

[4] = test system: fructosyl amino acid oxidase; test: Substrate specificity of fructosyl amino acid oxidase-immobilized column (Example 3); conditions: buffers pH 8.0; for Relative response value: normalized to 100 for the response to fructosyl glycine, 37° C., dialysis module
From the text: The buffer was removed as far as possible. […] The support immobilized enzyme was packed into the column (internal diameter: 3.5 mm, length: 30 mm) to give the fructosyl amino acid oxidase-immobilized column. In the assay apparatus shown in FIG. 2, the flow type calorimeter (16), the protease-immobilized column (14) and the first immobilized enzyme column (17) were not disposed, and the electrode for glucose was placed in the electrode for hydrogen peroxide (18), the fructosyl amino acid oxidase-immobilized column in the second immobilized enzyme column (19), and the electrode for hydrogen peroxide in the electrode for hydrogen peroxide (20). The buffer B was pumped out from the buffer tank (24) using the pump (25), and a 100 μL portion of the sample was injected using the valve (4). […] Since the buffer A was pumped out from the buffer tank (1) by the pump (2), the components with low molecular weight in the sample dialyzed in the dialysis module (27) passed through the electrode for glucose (18), the fructosyl amino acid oxidase-immobilized column (19) and the electrode for hydrogen peroxide (20), and hydrogen peroxide from glucose and fructosyl amino acid in the sample was detected. […] The temperature in the incubator was 37° C. The substrate specificity of fructosyl amino acid oxidase-immobilized column for various fructosyl amino acids, fructosyl peptides, amino acids and sugars was examined using the assay apparatus mentioned in (4) when pH of the buffers was 8.0.

SMILES	Relative activity (%) pH 6.0 [1] [%]	Relative activity (%) pH 7.0 [1] [%]	Relative activity (%) pH 8.0 [1] [%]	Relative activity (%) ([2]; sample concentration 10 mM)	Relative response value [3]	Relative response value [4]	response of fructosyl amino acid oxidase-immobilized column [4]	response of fructosyl peptide oxidase-immobilized column (in words) ([1]; at any pH (6.0, 7.0, 8.0))	Relative activity (%) ([2]; sample concentration 0.1 mM)	response of fructosyl peptide oxidase-immobilized column (in words) [3]
C[C@H](N)C(=O)O [Ala]	0	0	0	0.0	0.0	0.0	–	–	–	–
OC[C@@H](O)[C@@H](O)[C@H](O)[C@@H](O)CO [D-Sorbitol]	0	0	0	0.0	0.0	0.0	–	–	–	–
CSCC[C@H](N)C(=O)O [Met]	0	0	0	8.0	0.0	0.1	extremely small responses	–	–	–
NCC(=O)O [Gly]	0	0	0	0.0	0.0	0.0	–	–	–	–
O=C(O)[C@H](CCCCNCC(=O)[C@@H](O)[C@H](O)[C@H](O)CO)NCC(=O)[C@@H](O)[C@H](O)[C@H](O)CO [α, ε-Fructosyl lysine]	9	10	11	–	9.9	1.1	–	scarcely responded	5.0	scarcely responded
CC(C)C[C@H](N)C(=O)O [Leu]	0	0	0	0.0	0.0	0.0	–	–	–	–
NC(=O)CC[C@H](N)C(=O)O [Gln]	0	0	0	6.0	0.0	0.2	extremely small responses	–	–	–
N[C@@H](CO)C(=O)O [Ser]	0	0	0	0.0	0.0	0.0	–	–	–	–
N[C@@H](CCC(=O)O)C(=O)O [Glu]	0	0	0	0.0	0.0	0.0	–	–	–	–
N=C(N)NCCC[C@H](N)C(=O)O [Arg]	0	0	0	1.0	0.0	0.0	–	–	–	–

Source: US8128802B2, “Analysis apparatus and analysis method for glycosylated hemoglobin” (OJI Paper Co., Ltd, priority 2005, dated 2012)
